Where two headings read alike, the source gives them in different places.
Legend:
human AR [1] = target: T1, human AR (Homo sapiens, UniProt P10275); experiment: AR whole cell competitive binding assay (COS-1 cells, 3H-DHT); settings: 1 nM 3H-DHT, Cheng-Prusoff
T1 sequence (P10275 1-920): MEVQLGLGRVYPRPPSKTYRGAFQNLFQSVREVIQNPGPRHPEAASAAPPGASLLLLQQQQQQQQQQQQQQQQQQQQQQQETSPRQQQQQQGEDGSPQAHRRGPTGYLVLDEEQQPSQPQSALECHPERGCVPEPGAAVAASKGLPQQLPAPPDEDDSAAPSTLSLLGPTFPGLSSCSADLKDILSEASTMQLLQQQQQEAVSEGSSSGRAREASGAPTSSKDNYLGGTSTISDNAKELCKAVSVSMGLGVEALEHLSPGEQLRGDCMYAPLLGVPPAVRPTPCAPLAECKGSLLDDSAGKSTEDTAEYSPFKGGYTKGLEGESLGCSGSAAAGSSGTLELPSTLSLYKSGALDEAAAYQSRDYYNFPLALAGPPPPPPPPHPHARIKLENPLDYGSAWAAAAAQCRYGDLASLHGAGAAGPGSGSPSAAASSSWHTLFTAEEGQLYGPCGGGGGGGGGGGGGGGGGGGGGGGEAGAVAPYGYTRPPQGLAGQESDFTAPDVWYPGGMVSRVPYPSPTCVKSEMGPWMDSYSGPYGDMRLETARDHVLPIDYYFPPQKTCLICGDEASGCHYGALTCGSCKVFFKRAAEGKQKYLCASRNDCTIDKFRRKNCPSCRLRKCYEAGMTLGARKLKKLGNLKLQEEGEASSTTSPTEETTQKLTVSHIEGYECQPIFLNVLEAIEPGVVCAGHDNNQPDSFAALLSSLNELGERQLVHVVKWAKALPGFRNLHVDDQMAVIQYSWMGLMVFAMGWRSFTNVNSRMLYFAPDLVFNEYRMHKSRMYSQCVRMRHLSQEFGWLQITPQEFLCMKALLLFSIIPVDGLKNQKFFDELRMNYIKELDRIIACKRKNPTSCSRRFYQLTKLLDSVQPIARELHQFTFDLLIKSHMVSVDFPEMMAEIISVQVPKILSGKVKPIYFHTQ

human AR [2] = target: T1, human AR; experiment: Co-transfection assay, AR agonist activity (CV-1 cells, MTV-LUC reporter); format: cell-based; settings: for EC50: agonist potency EC50
human AR [3] = target: T1, human AR; experiment: Co-transfection assay, AR antagonist activity (CV-1 cells, in presence of DHT); format: cell-based; settings: for IC50: read-out: AR Antagonist CV-1 Cells Potency
[4] = CV-1 cells, percent maximal response relative to reference agonist DHT
[5] = CV-1 cells, percent maximal inhibition, DHT at its EC50

Molecule | AR Agonist CV-1 Cells Efficacy (%) (human AR [2]; [4]) | AR Antagonist CV-1 Cells Efficacy (%) (human AR [3]; [5]) | AR Antagonist CV-1 Cells Efficacy (%) (human AR [3]) | AR Agonist CV-1 Cells Efficacy (%) (human AR [2]) | other results
CS(=O)(=O)N(CC(F)(F)F)c1ccc2[nH]c(=O)cc(C(F)(F)F)c2c1 [Compound 295, 6-(N-2,2,2-Trifluoroethyl-N-methylsufonyl)amino-4-trifluoromethyl-2(1H)-quinolinone] | 30 | 49% |  |  | Ki (human AR [1]): 86 nM; EC50 (human AR [2]; CV-1 cells): 50 nM; IC50 (human AR [3]): 3.6 nM
O=c1cc(C(F)(F)F)c2cc(N3CCCC[C@H]3CCl)ccc2[nH]1 [Compound 432, (+)S-6-(2-Chloromethyl-1-piperidino)-4-trifluoromethyl-2(1H)-quinolinone] | 96 | na (na = not active (i.e. efficacy of <20 and potency of >10,000)) |  |  | Ki (human AR [1]): 32 nM; EC50 (human AR [2]; CV-1 cells): 8 nM; IC50 (human AR [3]): > 10000 nM
C=CC(C)(C)Nc1ccc2c(C(F)(F)F)cc(=O)[nH]c2c1 [Compound 559, 7-(1,1-Dimethylallyl)amino-4-trifluoromethyl-2(1H)-quinolinone] |  |  | 92% |  | 
O=c1cc(C(F)(F)F)c2ccc(NCC(F)(F)F)cc2[nH]1 [Compound 523, 7-(N-2,2,2-Trifluoroethyl)amino-4-trifluoromethyl-2(1H)-quinolinone] |  |  | 62% | 29 | 
CC(C)Nc1ccc2c(C(F)(F)F)cc(=O)[nH]c2c1 [Compound 514, 7-Isopropylamino-4-trifluoromethyl-2(1H)-quinolinone] |  |  | 87% |  | 
CCCNc1ccc2c(C(F)(F)F)cc(=O)[nH]c2c1 [Compound 513, 7-Propylamino-4-trifluoromethyl-2(1H)-quinolinone] |  |  | 84% |  | 
O=c1cc(C(F)(F)F)c2ccc(NCC(F)(F)C(F)(F)F)cc2[nH]1 [Compound 520, 7-(2,2,3,3,3-Pentafluoropropyl)amino-4-trifluoromethyl-2(1H)-quinolinone] |  |  | 76% |  | 
Cc1cc(=O)[nH]c2ccc(N(CC(F)(F)F)CC(F)(F)F)cc12 [Compound 377, 6-(bis-2,2,2-Trifluoroethyl)amino-4-methyl-2(1H)-quinolinone] |  |  | na (key: na = not active (i.e. efficacy of <20 and potency of >10,000)) | 89 | 
CCCCN(CCCC)c1ccc2[nH]c(=O)cc(C(F)(F)F)c2c1 [Compound 220, 6-Dibutylamino-4-trifluoromethyl-2(1H)-quinolinone] |  |  | 54% | 68 | 
CCC(C)c1cc2c(C(F)(F)F)cc(=O)[nH]c2cc1N (centres unmarked) [Compound 581, 7-Amino-6-sec-butyl-4-trifluoromethyl-2(1H)-quinolinone] | 39 | 23% |  |  | 
4-Methyl-6-(2,4-dichlorolphenyl)-2(1H)-quinolinone [Compound 762] |  | 81% |  |  | EC50 (human AR [2]; CV-1 cells): > 10000 nM; IC50 (human AR [3]; CV-1 cells, antagonist potency IC50, DHT at its EC50): 63 nM
O=C(Nc1ccc2c(C(F)(F)F)cc(=O)[nH]c2c1)C(F)(F)F [Compound 528, 7-(Trifluoroacetamido)-4-trifluoromethyl-2(1H)-quinolinone] | 36 | 59% |  |  | EC50 (human AR [2]; CV-1 cells): 1300 nM; IC50 (human AR [3]): 26 nM
CCN(c1ccc2[nH]c(=O)cc(C(F)(F)F)c2c1)C(C)C [Compound 239, 6-(N-Ethyl-N-isopropyl)amino-4-trifluoromethyl-2(1H)-quinolinone] |  |  | na (key: na = not active (i.e. efficacy of <20 and potency of >10,000)) | 83 | 
Cc1cc(=O)[nH]c2ccc(N(CC(C)C)CC(F)(F)F)cc12 [Compound 381, 6-(N-Isobutyl-N-2,2,2-trifluoroethyl)amino-4-methyl-2(1H)-quinolinone] | 72 | na (na = not active (i.e. efficacy of <20 and potency of >10,000)) |  |  | 
CCCNc1ccc2[nH]c(=O)cc(C(F)(F)F)c2c1 [Compound 204, 6-Propylamino-4-trifluoromethyl-2(1H)-quinolinone] |  |  | 72% | 34 | 
